Entries after “also recorded” stand apart in the source; their conditions may differ.
Experiments:
secreted APP (APPs) [1] = test: APPs secretion into the media of cultured cortical astrocytes, Western blot; format: cell-based, rat; details: DFU or DFP 10^-9-10^-3 M, 1 h, cultured astrocytes
Protocol: Astrocytes are isolated from cortices from postnatal rats. […] Media are changed twice weekly.
To detect secreted APP, culture media was collected after drug treatments and phenylmethylsulfonyl fluoride was added to a final concentration of 2 mM. The media samples were then applied to Sephadex PD-10 desalting columns (Pharmacia) and eluted with distilled water. Column eluates were frozen and dried by vacuum centrifugation. The lyophilized proteins were reconstituted in 25 μL water followed by 25 μL of 2X Laemmli gel loading buffer, and boiled for 5 min.
Assays of PI hydrolysis are conducted as previously reported. Also, measurements of APPs are conducted as previously reported.

APP holoprotein [2] = test: Cell-associated APP (APP holoprotein), Western blot, cultured cortical astrocytes; details: DFU or DFP 10^-9-10^-3 M, 1 h, cultured astrocytes
Protocol: Astrocytes are isolated from cortices from postnatal rats. […] In brief, dissected cortices were dissociated by trypsinization and trituration through a flame-polished Pasteur pipette. Cells were plated onto poly-L-lysine coated 35- or 100 mm culture dishes at densities of about 10-25 cells/mm^2. […] Media are changed twice weekly. […] Pharmacological manipulations are performed in serum-free media on 7-14 DIV confluent astrocytes.
To detect cell-associated protein (APP or GFAP), astrocytes from 35 mm dishes are scraped in lysis buffer (60 mM Tris/HCl, 4% SDS, 20% glycerol, 1 mM dithiothreitol), ultrasonicated and boiled for 5 min. The total amount of cell protein per dish, estimated using the bicinchoninic acid assay, is not altered by pharmacological treatments. Bromphenol blue (0.1%) is added to each sample and equal amounts of protein (˜75 mg/lane) are loaded on 10% SDS-polyacrylamide gels.
The amount of media or cell protein loaded for sodium dodecyl sulfate-polyacrylamide gel electrophoresis (10-20% SDS PAGE; Bio-Rad) was normalized for the amount of protein per sample. […] After 2×10 min rinses in TBST, the membranes were incubated in TBST containing an appropriate antibody. Monoclonal antibodies 22C11 and GFAP (both from Boehringer-Mannheim) were used to detect the N-terminus of APP and glial fibrillary acidic protein respectively; antisera R37 and R98 (gifts of Dr. F. Kametani, Tokyo Institute of Psychiatry) were used to detected the C-terminus and KPI motifs of APP respectively; antiserum C8 (gift of Dr. D. Selkoe, Women's Hospital, Harvard Medical School, Cambridge, Mass.) was used to detect the C-terminus of APP.
After an overnight incubation, membranes were rinsed in TBST before being treated for 1h with a peroxidase-linked secondary antibody. After several rinses in TBST, protein bands were visualized on Kodak X-AR films by an enhanced chemiluminescence method (Amersham). Optical densities of the protein bands were quantitated by laser scanning densitometry (LKB, Bromma, Sweden), and normalized to the densities of those bands generated under control conditions.

APP holoprotein [3] = test: APP holoprotein in cultured neurons; format: cell-based; details: DFP
Excerpt: (§1) Treatment of cultured astroyctes with DFU (A) or of cultured neurons with DFP (B) promotes APPs secretion and decreases the levels of amyloidogenic APP holoprotein in cultured.

secreted APP (APPs) [4] = test: APPs secretion from cultured neurons; format: cell-based; details: DFP
Excerpt: as §1

APP holoprotein [5] = test: Brain APP holoprotein in rats injected with p-chloroamphetamine (PCA) with or without aspirin; format: in vivo, rat; details: rats injected with PCA; striatum or hippocampus
Excerpt: Neuronal injury can stimulate prostaglandin production., and thereby stimulate APP overexpression. We injected rats with para-chloroamphetamine (PCA), a neurotoxin which causes a loss of serotoninergic terminals in the brain.

serotonin release = test: Serotonin release in the striatum by microdialysis; format: in vivo, rat; details: rats, chronic treatment with PCA
APP mRNA = details: dibutyryl cAMP in serum-containing medium, rat glioma cells; cited from earlier work
[6] = 100-150 mg indomethacin, 6 months, mild or moderately impaired Alzheimer's disease patients; cited from earlier work

CC(C)OC1=C(c2ccc(S(C)(=O)=O)cc2)C(C)(C)OC1=O [DFP, 5,5-dimethyl-3-isopropyloxy-4-(4′-methylsulfonylphenyl)-2(5H)-furanone]
secretion of soluble APPs (secreted APP (APPs) [1]): increases
levels of cellular APP holoprotein (APP holoprotein [2]): decreases
levels of amyloidogenic APP holoprotein (APP holoprotein [3]): decreases
APPs secretion (secreted APP (APPs) [4]): promotes

CC(N)Cc1ccc(Cl)cc1 (stereo not drawn) [PCA, para-chloroamphetamine]
KPI-containing APP isoforms in brain tissue (APP holoprotein [5]): increased
brain APP holoprotein levels (APP holoprotein [5]): increased; also recorded: significant increases
serotonin release in the striatum (serotonin release): compromised

CCCC(=O)Nc1ncnc2c1ncn2[C@@H]1O[C@@H]2COP(=O)(O)O[C@H]2[C@H]1OC(=O)CCC [dibutyryl cAMP]
APP mRNA (APP mRNA): increased

COc1ccc2c(c1)c(CC(=O)O)c(C)n2C(=O)c1ccc(Cl)cc1 [indomethacin]
cognitive decline versus placebo, battery of cognitive tests [6]: appeared to protect

Source: US6469055B2, “Compositions and methods for treatment of neurological disorders and neurodegenerative diseases” (Massachusetts Institute of Technology, priority 1996, dated 2002)
